Results published in US9115380B2, “Kits and methods for generating 5′ capped RNA” (priority 2006, dated 2015).
“And” between values parts separate entries of the source, which are not always exact repeats. Equal values may be shown once. “Also recorded” adds a separate entry of the source. Read-outs that look alike come from different tables or passages of the source.

Assays:
vaccinia capping enzyme = vaccinia capping enzyme (Vaccinia virus, UniProt P04298); assay type: biochemical
[1] = target: RNA guanyltransferase activity of the vaccinia capping enzyme system (Vaccinia virus, UniProt P04298); details: cited from earlier work
[2] = target: vaccinia mRNA (nucleoside-2′-O—) methyltransferase (Vaccinia virus, UniProt P07617); assay type: biochemical
[3] = test system: tobacco acid pyrophosphatase (TAP); assay type: biochemical
[4] = test system: rabbit reticulocyte lysate; assay type: biochemical
wheat germ lysate = assay type: biochemical
[5] = target: vaccinia capping enzyme (guanine 7-methyltransferase activity) (Vaccinia virus, UniProt P04298); assay type: biochemical
BDCM cells = assay type: cell-based; details: poly(A)-tailed Renilla luciferase RNA
[6] = rabbit reticulocyte lysate, poly(A)-tailed Renilla luciferase RNA, cap 0 structure, GTP-capped cap 0 RNA = 100%
[7] = rabbit reticulocyte lysate, poly(A)-tailed Renilla luciferase RNA, cap I structure
[8] = rabbit reticulocyte lysate, poly(A)-tailed firefly luciferase RNA, cap I structure
[9] = wheat germ lysate, poly(A)-tailed Renilla luciferase RNA, cap I structure
[10] = wheat germ lysate, poly(A)-tailed Renilla luciferase RNA, cap 0 structure, GTP-capped cap 0 RNA = 100%
[11] = capped RNA prepared per Method 6
[12] = cap 0 structure, GTP-capped cap 0 RNA = 100%
[13] = cap I structure, GTP-capped RNA = 100%

Nc1ncnc2c1ncn2[C@@H]1O[C@H](COP(=O)(O)OP(=O)(O)OP(=O)(O)O)[C@@H](O)[C@H]1O [ATP, reference compound]
substrate for the capping enzyme system (51-base primary RNA transcript converted into 52-base capped RNA) (vaccinia capping enzyme): not substrates for the capping enzyme system | use in place of GTP in an in vitro capping reaction [1]: could not be used in place of GTP

CO[C@@H]1[C@H](O)[C@@H](COP(=O)(O)OP(=O)(O)OP(=O)(O)O)O[C@H]1n1cnc2c(=O)[nH]c(N)nc21 [2′-OMe-GTP, 2′-O-methylguanosine-5′-triphosphate]
methylation of the 2′-hydroxyl of the 5′-penultimate nucleotide by mRNA (nucleoside-2′-O—) methyltransferase [2]: 52-base radioactive band was observed | removal of the cap nucleotide by tobacco acid pyrophosphatase (51-base band on PAGE) [3]: 51-base band was observed | average relative translation efficiency [4]: 132% and 97% and 170% | relative translation efficiency (wheat germ lysate): 36% and 47%

Nc1nc2c(ccn2[C@@H]2O[C@H](COP(=O)(O)OP(=O)(O)OP(=O)(O)O)[C@@H](O)[C@H]2O)c(=O)[nH]1 [7-deaza-GTP, reference compound]
substrate for the capping enzyme system (51-base primary RNA transcript converted into 52-base capped RNA) (vaccinia capping enzyme): not substrates for the capping enzyme system

Nc1nc2c(ncn2[C@@H]2O[C@H](COP(=O)(O)OP(=O)(O)OP(=O)(O)O)C[C@H]2O)c(=O)[nH]1 [3′-dGTP, 3′-deoxyguanosine-5′-triphosphate]
average relative translation efficiency [4, 6]: 80% | average relative translation efficiency [4, 7]: 64% | average relative translation efficiency [4, 8]: 98% | relative translation efficiency (wheat germ lysate; [9]): 31%

[N-]=[N+]=N[C@H]1C[C@H](n2cnc3c(=O)[nH]c(N)nc32)O[C@@H]1COP(=O)(O)OP(=O)(O)OP(=O)(O)O [3′-azido-2′,3′-ddGTP, 3′-azido-2′,3′-dideoxyguanosine-5′-triphosphate]
substrate for the capping enzyme system (51-base primary RNA transcript converted into 52-base capped RNA) (vaccinia capping enzyme): substrates for the capping enzyme system

Nc1nc2c(ncn2[C@@H]2O[C@H](COP(=O)(O)OP(=O)(O)O)[C@@H](O)[C@H]2O)c(=O)[nH]1 [GDP]
use in place of GTP in an in vitro capping reaction [1]: could not be used in place of GTP

Cn1c[n+]([C@@H]2O[C@H](COP(=O)(O)OP(=O)([O-])OP(=O)(O)O)[C@@H](O)[C@H]2O)c2nc(N)[nH]c(=O)c21 [N^7-methyl-GTP, reference compound]
substrate for the capping enzyme system (51-base primary RNA transcript converted into 52-base capped RNA) (vaccinia capping enzyme): not substrates for the capping enzyme system | use in place of GTP in an in vitro capping reaction [1]: could not be used in place of GTP

Nc1nc2c(ncn2[C@@H]2O[C@H](COP(=O)(O)OP(=O)(O)OP(=O)(O)O)[C@@H](O)[C@H]2F)c(=O)[nH]1 [2′-F-dGTP, 2′-fluoro-2′-deoxyguanosine-5′-triphosphate]
methylation of the 2′-hydroxyl of the 5′-penultimate nucleotide by mRNA (nucleoside-2′-O—) methyltransferase [2]: 52-base radioactive band was observed | removal of the cap nucleotide by tobacco acid pyrophosphatase (51-base band on PAGE) ([3]; capped RNA prepared per Method 6 except in the absence of S-adenosyl-L-methionine): 51-base band was observed | average relative translation efficiency [4, 6]: 55% | average relative translation efficiency [4, 7]: 107% | average relative translation efficiency [4, 8]: 133% | relative translation efficiency (wheat germ lysate; [10]): 53% | relative translation efficiency (wheat germ lysate; [9]): 61%

Cn1c(N)nc2c(ncn2[C@@H]2O[C@H](COP(=O)(O)OP(=O)(O)OP(=O)(O)O)[C@@H](O)[C@H]2O)c1=O [N^1-methyl-GTP, N^1-methylguanosine-5′-triphosphate]
conversion of 51-base primary RNA transcript to 52-base capped RNA (in words) (vaccinia capping enzyme): quantitatively converted | substrate for the capping enzyme system (51-base primary RNA transcript converted into 52-base capped RNA) (vaccinia capping enzyme): substrates for the capping enzyme system | methylation of the N^7 position of the cap nucleotide (radioactive methyl group in 52-base band) [5]: did not contain any radioactivity | relative translation efficiency (wheat germ lysate): 31%

CO[C@H]1[C@@H](O)[C@H](n2cnc3c(=O)[nH]c(N)nc32)O[C@@H]1COP(=O)(O)OP(=O)(O)OP(=O)(O)O [3′-OMe-GTP, 3′-O-methylguanosine-5′-triphosphate]
conversion of 51-base primary RNA transcript to 52-base capped RNA (in words) (vaccinia capping enzyme): quantitatively converted | methylation of the 2′-hydroxyl of the 5′-penultimate nucleotide by mRNA (nucleoside-2′-O—) methyltransferase [2]: 52-base radioactive band was observed | removal of the cap nucleotide by tobacco acid pyrophosphatase (51-base band on PAGE) [3, 11]: 51-base band was observed | average relative translation efficiency [4, 6]: 82% | average relative translation efficiency [4, 7]: 84% | average relative translation efficiency [4, 8]: 137% | relative translation efficiency (wheat germ lysate; [10]): 39% | relative translation efficiency (wheat germ lysate; [9]): 43%

Nc1nc2c(ncn2[C@H]2CC[C@@H](COP(=O)(O)OP(=O)(O)OP(=O)(O)O)O2)c(=O)[nH]1 [2′,3′-ddGTP, 2′,3′-dideoxy-GTP, reference compound]
substrate for the capping enzyme system (51-base primary RNA transcript converted into 52-base capped RNA) (vaccinia capping enzyme): not substrates for the capping enzyme system; also recorded: not a substrate for the capping enzyme system

Nc1nc2c(ncn2[C@@H]2O[C@H](COP(=O)(O)O)[C@@H](O)[C@H]2O)c(=O)[nH]1 [GMP]
use in place of GTP in an in vitro capping reaction [1]: could not be used in place of GTP

O=c1[nH]cnc2c1ncn2[C@@H]1O[C@H](COP(=O)(O)OP(=O)(O)OP(=O)(O)O)[C@@H](O)[C@H]1O [ITP]
use in place of GTP in an in vitro capping reaction [1]: could not be used in place of GTP

O=c1ccn([C@@H]2O[C@H](COP(=O)(O)OP(=O)(O)OP(=O)(O)O)[C@@H](O)[C@H]2O)c(=O)[nH]1 [UTP]
use in place of GTP in an in vitro capping reaction [1]: could not be used in place of GTP

COc1nc(N)nc2c1ncn2[C@@H]1O[C@H](COP(=O)(O)OP(=O)(O)OP(=O)(O)O)[C@@H](O)[C@H]1O [O^6-methyl-GTP, O^6-methylguanosine-5′-triphosphate]
51-base primary RNA transcript converted into 52-base capped RNA (vaccinia capping enzyme): approximately 70% | substrate for the capping enzyme system (51-base primary RNA transcript converted into 52-base capped RNA) (vaccinia capping enzyme): substrates for the capping enzyme system | conversion of 51-base primary RNA transcript into 52-base capped RNA (in words) [5]: quantitatively converted | methylation of the N^7 position of the cap nucleotide (radioactive methyl group in 52-base band) [5]: catalyzed formation of N^7-methylated capped RNA | relative translation efficiency (BDCM cells; [12]): 115% | relative translation efficiency (BDCM cells; [13]): 117% | average relative translation efficiency [4, 6]: 167% | average relative translation efficiency [4, 7]: 122% | average relative translation efficiency [4, 8]: 97% | relative translation efficiency (wheat germ lysate; [10]): 80% | relative translation efficiency (wheat germ lysate; [9]): 59%

CO[C@H]1[C@@H](O)[C@H]([n+]2cn(C)c3c(=O)[nH]c(N)nc32)O[C@@H]1COP(=O)([O-])OP(=O)(O)OP(=O)(O)OC[C@H]1O[C@@H](n2cnc3c(=O)[nH]c(N)nc32)[C@H](O)[C@@H]1O [m2^7,3′-OGpppG, reference compound]
relative translation efficiency (BDCM cells; [12]): 130% | relative translation efficiency (BDCM cells; [13]): 102%

Nc1nc2c(ncn2[C@H]2C[C@H](N)[C@@H](COP(=O)(O)OP(=O)(O)OP(=O)(O)O)O2)c(=O)[nH]1 [3′-amino-2′,3′-ddGTP, 3′-amino-2′,3′-dideoxyguanosine-5′-triphosphate]
substrate for the capping enzyme system (51-base primary RNA transcript converted into 52-base capped RNA) (vaccinia capping enzyme): substrates for the capping enzyme system

Nc1nc2c(ncn2[C@@H]2O[C@H](COP(=O)(O)OP(=O)(O)OP(=O)(O)O)[C@@H](O)[C@H]2N)c(=O)[nH]1 [2′-amino-dGTP, 2′-amino-2′-deoxyguanosine-5′-triphosphate]
conversion of 51-base primary RNA transcript to 52-base capped RNA (in words) (vaccinia capping enzyme): quantitatively converted | methylation of the 2′-hydroxyl of the 5′-penultimate nucleotide by mRNA (nucleoside-2′-O—) methyltransferase [2]: 52-base radioactive band was observed | removal of the cap nucleotide by tobacco acid pyrophosphatase (51-base band on PAGE) [3, 11]: 51-base band was observed | relative translation efficiency (BDCM cells; [12]): 150% | relative translation efficiency (BDCM cells; [13]): 177% | average relative translation efficiency [4, 6]: 148% | average relative translation efficiency [4, 7]: 144% | average relative translation efficiency [4, 8]: 100% | relative translation efficiency (wheat germ lysate; [10]): 90% | relative translation efficiency (wheat germ lysate; [9]): 110%

Nc1ccn([C@@H]2O[C@H](COP(=O)(O)OP(=O)(O)OP(=O)(O)O)[C@@H](O)[C@H]2O)c(=O)n1 [CTP]
use in place of GTP in an in vitro capping reaction [1]: could not be used in place of GTP

[N-]=[N+]=N[C@@H]1[C@H](O)[C@@H](COP(=O)(O)OP(=O)(O)OP(=O)(O)O)O[C@H]1n1cnc2c(=O)[nH]c(N)nc21 [2′-azido-dGTP, 2′-azido-2′-deoxyguanosine-5′-triphosphate]
methylation of the 2′-hydroxyl of the 5′-penultimate nucleotide by mRNA (nucleoside-2′-O—) methyltransferase [2]: 52-base radioactive band was observed | average relative translation efficiency [4, 6]: 99% | average relative translation efficiency [4, 7]: 79% | average relative translation efficiency [4, 8]: 107% | relative translation efficiency (wheat germ lysate; [10]): 41% | relative translation efficiency (wheat germ lysate; [9]): 42%
